Read-outs that look alike come from different tables or passages of the source.
Assays:
Assay type in all cases: binding
[1] = target: T1, HeLa cell extract proteins (Homo sapiens, UniProt P46940)
T1 construct: endogenous in cells; host or cells: HeLa cell extract

[2] = target: T2, HeLa cell extract proteins (Homo sapiens, UniProt P49748)
T2 construct: endogenous in cells; host or cells: HeLa cell extract
T2 sequence (P49748 41-655): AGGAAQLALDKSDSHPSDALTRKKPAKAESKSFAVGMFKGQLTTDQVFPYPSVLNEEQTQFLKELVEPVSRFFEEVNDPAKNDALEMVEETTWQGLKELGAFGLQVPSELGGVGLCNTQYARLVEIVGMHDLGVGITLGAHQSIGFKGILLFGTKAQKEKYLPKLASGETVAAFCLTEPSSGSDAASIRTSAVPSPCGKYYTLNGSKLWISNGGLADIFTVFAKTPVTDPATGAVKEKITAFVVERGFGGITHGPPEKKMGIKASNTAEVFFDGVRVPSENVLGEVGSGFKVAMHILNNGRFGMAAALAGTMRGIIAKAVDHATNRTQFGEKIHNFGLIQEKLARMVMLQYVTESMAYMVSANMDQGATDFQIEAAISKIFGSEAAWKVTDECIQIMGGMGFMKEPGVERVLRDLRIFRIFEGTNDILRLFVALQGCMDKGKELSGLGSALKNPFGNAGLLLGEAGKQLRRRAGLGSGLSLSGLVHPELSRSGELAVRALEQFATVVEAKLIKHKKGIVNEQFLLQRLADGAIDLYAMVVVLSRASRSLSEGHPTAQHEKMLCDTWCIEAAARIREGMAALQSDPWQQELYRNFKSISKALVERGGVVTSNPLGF

[3] = target: T3, HeLa cell extract proteins (Homo sapiens, UniProt P61160)
T3 construct: endogenous in cells; host or cells: HeLa cell extract

[4] = target: T4, HeLa cell extract proteins (Homo sapiens, UniProt P67775)
T4 construct: endogenous in cells; host or cells: HeLa cell extract

[5] = target: T5, HeLa cell extract proteins (Homo sapiens, UniProt Q16891)
T5 construct: endogenous in cells; host or cells: HeLa cell extract
T5 sequence (Q16891 34-758): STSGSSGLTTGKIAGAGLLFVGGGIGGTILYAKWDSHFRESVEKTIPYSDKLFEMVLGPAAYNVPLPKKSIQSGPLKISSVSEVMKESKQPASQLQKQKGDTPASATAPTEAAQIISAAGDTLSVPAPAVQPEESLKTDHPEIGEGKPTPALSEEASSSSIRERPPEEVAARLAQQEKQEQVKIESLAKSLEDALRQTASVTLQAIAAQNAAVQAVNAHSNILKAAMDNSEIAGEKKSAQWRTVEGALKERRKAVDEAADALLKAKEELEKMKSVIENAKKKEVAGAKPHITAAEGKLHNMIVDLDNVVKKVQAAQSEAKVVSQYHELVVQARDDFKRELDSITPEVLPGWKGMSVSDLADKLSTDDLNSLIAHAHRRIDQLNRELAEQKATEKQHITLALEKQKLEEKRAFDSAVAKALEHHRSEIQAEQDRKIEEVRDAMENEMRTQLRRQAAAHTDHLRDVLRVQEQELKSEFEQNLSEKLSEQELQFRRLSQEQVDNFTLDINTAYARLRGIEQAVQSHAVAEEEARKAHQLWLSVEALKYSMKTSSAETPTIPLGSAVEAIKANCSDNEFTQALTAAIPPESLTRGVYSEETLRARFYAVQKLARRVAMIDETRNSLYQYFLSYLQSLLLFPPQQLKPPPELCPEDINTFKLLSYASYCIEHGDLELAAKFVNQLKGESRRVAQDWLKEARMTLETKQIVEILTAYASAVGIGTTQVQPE

[6] = target: T6, HeLa cell extract proteins (Homo sapiens, UniProt Q3ZCQ8)
T6 construct: endogenous in cells; host or cells: HeLa cell extract

[7] = target: T7, HeLa cell extract proteins (Homo sapiens, UniProt Q6P3X3)
T7 construct: endogenous in cells; host or cells: HeLa cell extract

[8] = target: T8, HeLa cell extract proteins (Homo sapiens, UniProt Q8NCG7)
T8 construct: endogenous in cells; host or cells: HeLa cell extract
T8 sequence (Q8NCG7 1-672): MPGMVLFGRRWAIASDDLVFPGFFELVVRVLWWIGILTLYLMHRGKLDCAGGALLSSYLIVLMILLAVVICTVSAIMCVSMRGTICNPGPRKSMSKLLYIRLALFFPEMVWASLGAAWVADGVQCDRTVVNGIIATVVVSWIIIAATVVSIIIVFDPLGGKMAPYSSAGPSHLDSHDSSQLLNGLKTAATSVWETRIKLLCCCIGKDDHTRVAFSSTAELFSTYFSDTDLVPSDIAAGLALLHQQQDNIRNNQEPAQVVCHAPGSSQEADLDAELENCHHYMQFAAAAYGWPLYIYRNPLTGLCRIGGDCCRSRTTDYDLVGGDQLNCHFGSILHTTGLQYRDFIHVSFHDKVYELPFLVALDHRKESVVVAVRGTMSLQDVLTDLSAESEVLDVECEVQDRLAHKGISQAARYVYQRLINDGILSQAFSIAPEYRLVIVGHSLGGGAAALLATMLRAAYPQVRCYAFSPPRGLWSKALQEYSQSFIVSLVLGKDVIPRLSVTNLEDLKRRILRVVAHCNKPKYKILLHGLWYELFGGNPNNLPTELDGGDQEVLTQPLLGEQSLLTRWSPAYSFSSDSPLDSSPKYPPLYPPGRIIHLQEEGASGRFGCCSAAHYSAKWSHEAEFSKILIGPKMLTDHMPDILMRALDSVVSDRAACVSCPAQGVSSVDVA

[9] = target: T9, HeLa cell extract proteins (Homo sapiens, UniProt Q9P035)
T9 construct: endogenous in cells; host or cells: HeLa cell extract
T9 sequence (Q9P035 1-362): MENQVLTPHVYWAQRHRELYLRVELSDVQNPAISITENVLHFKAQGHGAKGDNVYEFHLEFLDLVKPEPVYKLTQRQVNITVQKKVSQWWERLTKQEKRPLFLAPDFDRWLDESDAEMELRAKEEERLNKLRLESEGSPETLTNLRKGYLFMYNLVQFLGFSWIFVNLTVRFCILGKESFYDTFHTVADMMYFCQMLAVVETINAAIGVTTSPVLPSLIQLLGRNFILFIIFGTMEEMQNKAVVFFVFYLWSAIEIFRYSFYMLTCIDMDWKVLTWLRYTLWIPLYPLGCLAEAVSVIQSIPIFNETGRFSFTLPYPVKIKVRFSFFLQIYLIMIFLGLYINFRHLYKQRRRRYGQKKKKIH

[10] = target: T10, HeLa cell extract proteins (Homo sapiens, UniProt Q9Y233)
T10 construct: endogenous in cells; host or cells: HeLa cell extract
T10 sequence (Q9Y233 whole entry): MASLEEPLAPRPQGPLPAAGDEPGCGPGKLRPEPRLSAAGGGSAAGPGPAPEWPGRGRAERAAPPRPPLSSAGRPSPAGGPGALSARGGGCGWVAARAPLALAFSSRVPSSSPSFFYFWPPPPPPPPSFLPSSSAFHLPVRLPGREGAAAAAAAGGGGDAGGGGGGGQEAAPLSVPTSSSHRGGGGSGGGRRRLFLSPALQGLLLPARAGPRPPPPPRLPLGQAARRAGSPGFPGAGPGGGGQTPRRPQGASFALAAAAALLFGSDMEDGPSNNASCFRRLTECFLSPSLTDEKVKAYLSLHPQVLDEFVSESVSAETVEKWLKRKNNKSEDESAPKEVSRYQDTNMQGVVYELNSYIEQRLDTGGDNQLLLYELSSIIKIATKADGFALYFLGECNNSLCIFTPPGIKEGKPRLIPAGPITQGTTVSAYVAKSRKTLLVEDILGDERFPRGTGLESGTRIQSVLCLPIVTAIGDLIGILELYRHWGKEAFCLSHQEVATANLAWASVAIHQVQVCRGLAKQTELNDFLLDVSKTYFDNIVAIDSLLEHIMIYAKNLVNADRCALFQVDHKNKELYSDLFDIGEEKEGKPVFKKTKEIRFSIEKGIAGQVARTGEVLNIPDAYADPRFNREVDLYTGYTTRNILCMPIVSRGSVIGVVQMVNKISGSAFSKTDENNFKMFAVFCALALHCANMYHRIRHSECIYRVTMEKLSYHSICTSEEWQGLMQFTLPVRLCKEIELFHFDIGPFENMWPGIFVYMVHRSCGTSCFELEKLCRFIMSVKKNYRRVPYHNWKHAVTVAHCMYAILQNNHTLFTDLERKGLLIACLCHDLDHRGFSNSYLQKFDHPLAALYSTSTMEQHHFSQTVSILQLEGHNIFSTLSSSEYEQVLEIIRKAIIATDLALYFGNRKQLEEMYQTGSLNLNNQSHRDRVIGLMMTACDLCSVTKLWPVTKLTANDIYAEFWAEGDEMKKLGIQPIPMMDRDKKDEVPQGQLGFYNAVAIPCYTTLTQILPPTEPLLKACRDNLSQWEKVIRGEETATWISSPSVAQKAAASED

T1 sequence (P46940 whole entry): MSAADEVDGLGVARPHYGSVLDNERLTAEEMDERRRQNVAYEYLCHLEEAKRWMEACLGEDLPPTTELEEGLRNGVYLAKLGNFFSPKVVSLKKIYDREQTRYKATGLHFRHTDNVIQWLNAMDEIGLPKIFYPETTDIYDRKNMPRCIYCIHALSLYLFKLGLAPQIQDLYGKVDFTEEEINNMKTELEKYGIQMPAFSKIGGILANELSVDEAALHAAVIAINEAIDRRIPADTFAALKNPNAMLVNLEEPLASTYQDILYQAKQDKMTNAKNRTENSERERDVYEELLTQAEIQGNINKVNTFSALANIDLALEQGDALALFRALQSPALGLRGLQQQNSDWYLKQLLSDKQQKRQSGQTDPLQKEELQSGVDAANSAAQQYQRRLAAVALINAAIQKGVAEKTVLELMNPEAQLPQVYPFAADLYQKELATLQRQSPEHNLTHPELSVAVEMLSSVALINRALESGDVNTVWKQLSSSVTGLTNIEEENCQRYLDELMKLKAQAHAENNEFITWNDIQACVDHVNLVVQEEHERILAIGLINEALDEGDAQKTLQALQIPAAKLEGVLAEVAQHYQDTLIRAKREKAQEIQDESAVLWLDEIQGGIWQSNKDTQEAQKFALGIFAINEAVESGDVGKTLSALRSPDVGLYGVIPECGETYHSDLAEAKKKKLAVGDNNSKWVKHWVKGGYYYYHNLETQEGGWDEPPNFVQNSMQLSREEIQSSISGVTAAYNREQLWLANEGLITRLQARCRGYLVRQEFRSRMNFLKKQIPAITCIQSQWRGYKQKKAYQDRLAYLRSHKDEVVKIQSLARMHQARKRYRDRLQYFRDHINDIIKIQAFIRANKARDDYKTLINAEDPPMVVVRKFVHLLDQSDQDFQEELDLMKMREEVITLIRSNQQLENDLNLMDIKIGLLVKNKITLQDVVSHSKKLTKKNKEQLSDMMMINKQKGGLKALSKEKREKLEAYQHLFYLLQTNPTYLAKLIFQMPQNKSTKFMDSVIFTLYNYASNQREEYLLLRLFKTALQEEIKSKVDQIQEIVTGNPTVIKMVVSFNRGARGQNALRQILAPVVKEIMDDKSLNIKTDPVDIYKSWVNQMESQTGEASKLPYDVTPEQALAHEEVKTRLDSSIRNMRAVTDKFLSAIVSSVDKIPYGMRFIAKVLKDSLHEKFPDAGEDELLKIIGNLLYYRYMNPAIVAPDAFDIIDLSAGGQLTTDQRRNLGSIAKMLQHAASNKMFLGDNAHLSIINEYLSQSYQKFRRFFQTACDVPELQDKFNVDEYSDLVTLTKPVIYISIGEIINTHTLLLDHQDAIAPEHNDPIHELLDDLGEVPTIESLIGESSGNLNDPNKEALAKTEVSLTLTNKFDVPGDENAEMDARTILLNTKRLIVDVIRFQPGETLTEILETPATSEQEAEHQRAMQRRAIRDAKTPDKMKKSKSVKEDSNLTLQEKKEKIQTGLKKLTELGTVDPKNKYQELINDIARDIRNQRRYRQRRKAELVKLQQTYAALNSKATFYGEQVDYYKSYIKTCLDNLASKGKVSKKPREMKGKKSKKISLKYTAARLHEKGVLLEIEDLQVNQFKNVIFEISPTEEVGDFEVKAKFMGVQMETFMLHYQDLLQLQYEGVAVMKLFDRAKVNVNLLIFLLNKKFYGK
T4 sequence (P67775 whole entry): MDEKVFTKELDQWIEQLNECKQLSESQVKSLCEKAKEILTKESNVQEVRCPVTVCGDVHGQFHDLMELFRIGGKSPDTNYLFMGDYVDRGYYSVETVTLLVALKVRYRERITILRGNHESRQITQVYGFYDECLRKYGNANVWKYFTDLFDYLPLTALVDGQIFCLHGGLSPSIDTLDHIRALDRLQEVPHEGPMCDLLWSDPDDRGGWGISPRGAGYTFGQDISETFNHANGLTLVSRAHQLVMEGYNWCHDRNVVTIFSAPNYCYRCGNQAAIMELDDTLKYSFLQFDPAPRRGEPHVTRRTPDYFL
T6 sequence (Q3ZCQ8 45-353): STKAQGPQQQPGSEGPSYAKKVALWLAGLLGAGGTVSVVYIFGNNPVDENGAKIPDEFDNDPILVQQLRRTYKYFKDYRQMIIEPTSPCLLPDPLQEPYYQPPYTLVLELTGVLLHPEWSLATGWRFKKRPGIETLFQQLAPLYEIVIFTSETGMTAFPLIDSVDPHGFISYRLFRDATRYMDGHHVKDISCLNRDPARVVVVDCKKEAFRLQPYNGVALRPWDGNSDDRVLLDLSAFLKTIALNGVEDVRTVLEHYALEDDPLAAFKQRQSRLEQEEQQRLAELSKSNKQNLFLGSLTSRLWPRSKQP

## Nc1nc2c(c(=O)[nH]1)N(C=O)C(CNc1ccc(C(=O)N[C@@H](CCC(=O)O)C(=O)O)cc1)CN2 (stereo partly shown) [LEU, leucovorin]
[1]; HeLa, protein IQGAP1
  fold changes relative to vehicle control: 1.02
[2]; HeLa, protein ACADVL
  fold changes relative to vehicle control: 0.98
[3]; HeLa, protein ACTR2
  fold changes relative to vehicle control: 0.99
[4]; HeLa, captured protein PPP2CA
  fold changes relative to vehicle control: 0.95
[5]; HeLa, captured protein IMMT
  fold changes relative to vehicle control: 0.97
[6]; HeLa, protein TIMM50
  fold changes relative to vehicle control: 0.9
[7]; protein TTC27, HeLa
  fold changes relative to vehicle control: 0.76
[8]; HeLa, protein DAGLB
  fold changes relative to vehicle control: 1.01
[9]; HeLa, protein PTPLAD1
  fold changes relative to vehicle control: 0.97
[10]; protein PDE10A, HeLa
  fold changes relative to vehicle control: 1.01

## Nc1nc2[nH]cc(CCc3ccc(C(=O)N[C@@H](CCC(=O)O)C(=O)O)cc3)c2c(=O)[nH]1 [PTX, pemetrexed]
[1]
  fold changes relative to vehicle control: 1.08
[2]
  fold changes relative to vehicle control: 1.03
[3]
  fold changes relative to vehicle control: 1.08
[4]
  fold changes relative to vehicle control: 0.93
[5]
  fold changes relative to vehicle control: 1.01
[6]
  fold changes relative to vehicle control: 0.87
[7]
  fold changes relative to vehicle control: 0.74
[8]
  fold changes relative to vehicle control: 0.88
[9]
  fold changes relative to vehicle control: 1
[10]
  fold changes relative to vehicle control: 0.66

## CCCCCCOc1ccc(Cc2cnc(N)nc2N)cc1 [compound 1]
[1]; protein IQGAP1, HeLa
  fold changes relative to vehicle control: 0.99
[2]; protein ACADVL, HeLa
  fold changes relative to vehicle control: 0.96
[3]; protein ACTR2, HeLa
  fold changes relative to vehicle control: 1.06
[4]; HeLa, protein PPP2CA
  fold changes relative to vehicle control: 0.87
[5]; HeLa, protein IMMT
  fold changes relative to vehicle control: 0.96
[6]; captured protein TIMM50, HeLa
  fold changes relative to vehicle control: 1
[7]; captured protein TTC27, HeLa
  fold changes relative to vehicle control: 0.94
[8]; captured protein DAGLB, HeLa
  fold changes relative to vehicle control: 1.02
[9]; captured protein PTPLAD1, HeLa
  fold changes relative to vehicle control: 1.06
[10]; captured protein PDE10A, HeLa
  fold changes relative to vehicle control: 0.96

## CCCCCCOc1cccc(Cc2cnc(N)nc2N)c1 [compound 2]
[1]; protein IQGAP1, HeLa
  fold changes relative to vehicle control: 1.69
[2]; protein ACADVL, HeLa
  fold changes relative to vehicle control: 1.29
[3]; protein ACTR2, HeLa
  fold changes relative to vehicle control: 1.44
[4]; HeLa, protein PPP2CA
  fold changes relative to vehicle control: 1.02
[5]; HeLa, protein IMMT
  fold changes relative to vehicle control: 1.14
[6]; captured protein TIMM50, HeLa
  fold changes relative to vehicle control: 1.04
[7]; captured protein TTC27, HeLa
  fold changes relative to vehicle control: 0.92
[8]; captured protein DAGLB, HeLa
  fold changes relative to vehicle control: 1.07
[9]; captured protein PTPLAD1, HeLa
  fold changes relative to vehicle control: 1.02
[10]; captured protein PDE10A, HeLa
  fold changes relative to vehicle control: 0.94

## Nc1nc2cccc(-c3ccccc3)c2n1Cc1ccc(Cl)c(Cl)c1 [compound 3]
[1]; protein IQGAP1, HeLa
  fold changes relative to vehicle control: 0.93
[2]; protein ACADVL, HeLa
  fold changes relative to vehicle control: 0.91
[3]; protein ACTR2, HeLa
  fold changes relative to vehicle control: 1.13
[4]; HeLa, protein PPP2CA
  fold changes relative to vehicle control: 0.91
[5]; HeLa, protein IMMT
  fold changes relative to vehicle control: 1.05
[6]; captured protein TIMM50, HeLa
  fold changes relative to vehicle control: 0.99
[7]; captured protein TTC27, HeLa
  fold changes relative to vehicle control: 0.81
[8]; captured protein DAGLB, HeLa
  fold changes relative to vehicle control: 0.97
[9]; captured protein PTPLAD1, HeLa
  fold changes relative to vehicle control: 2.73
[10]; captured protein PDE10A, HeLa
  fold changes relative to vehicle control: 0.99

## NCCOCCOCC(=O)Nc1nc2ncc(CNc3ccc(C(=O)NC(CCC(=O)O)C(=O)O)cc3)nc2c(=O)[nH]1 (stereo not shown) [compound 6]
[1]; HeLa, protein IQGAP1
  fold changes relative to vehicle control: 1.25
[2]; HeLa, protein ACADVL
  fold changes relative to vehicle control: 1.22
[3]; HeLa, protein ACTR2
  fold changes relative to vehicle control: 1.18
[4]; HeLa, captured protein PPP2CA
  fold changes relative to vehicle control: 0.91
[5]; HeLa, captured protein IMMT
  fold changes relative to vehicle control: 1.03
[6]; HeLa, protein TIMM50
  fold changes relative to vehicle control: 0.96
[7]; protein TTC27, HeLa
  fold changes relative to vehicle control: 0.8
[8]; HeLa, protein DAGLB
  fold changes relative to vehicle control: 1.07
[9]; HeLa, protein PTPLAD1
  fold changes relative to vehicle control: 1.04
[10]; protein PDE10A, HeLa
  fold changes relative to vehicle control: 0.78

## NCCCNc1ccc(C(=O)NC(CCC(=O)O)C(=O)O)cc1 (stereo not shown) [compound 7]
[1]; HeLa, protein IQGAP1
  fold changes relative to vehicle control: 1.18
[2]; HeLa, protein ACADVL
  fold changes relative to vehicle control: 0.97
[3]; HeLa, protein ACTR2
  fold changes relative to vehicle control: 0.97
[4]; HeLa, captured protein PPP2CA
  fold changes relative to vehicle control: 0.97
[5]; HeLa, captured protein IMMT
  fold changes relative to vehicle control: 1.09
[6]; HeLa, protein TIMM50
  fold changes relative to vehicle control: 0.97
[7]; protein TTC27, HeLa
  fold changes relative to vehicle control: 0.82
[8]; HeLa, protein DAGLB
  fold changes relative to vehicle control: 1.04
[9]; HeLa, protein PTPLAD1
  fold changes relative to vehicle control: 1.05
[10]; protein PDE10A, HeLa
  fold changes relative to vehicle control: 1

— paper PMC6199744, “Development of Chemical Proteomics for the Folateome and Analysis of the Kinetoplastid Folateome” (ACS Infectious Diseases, 2018)
